Experimental data taken from PubChem BioAssay (NCI).
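Values below derive from 48-hour exposures of cells grown in 96-well plates, with endpoints linearly interpolated between the two concentrations bracketing the appropriate inhibition level. Definition used: TGI = concentration required for complete inhibition of growth.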

Legend:
Experiment in all cases: NCI tumour cell line growth inhibition, 48 h
786-0 renal = test system: 786-0 renal
A498 renal = test system: A498 renal
A549 NSCLC = test system: A549 NSCLC
ACHN renal = test system: ACHN renal
BT-549 breast = test system: BT-549 breast
CAKI-1 renal = test system: CAKI-1 renal
CCRF-CEM leukemia = test system: CCRF-CEM leukemia
COLO 205 colon = test system: COLO 205 colon
DU-145 prostate = test system: DU-145 prostate
EKVX NSCLC = test system: EKVX NSCLC
HCC-2998 colon = test system: HCC-2998 colon
HCT-116 colon = test system: HCT-116 colon
HCT-15 colon = test system: HCT-15 colon
HL-60(TB) leukemia = test system: HL-60(TB) leukemia
HOP-62 NSCLC = test system: HOP-62 NSCLC
HOP-92 NSCLC = test system: HOP-92 NSCLC
HS 578T breast = test system: HS 578T breast
HT29 colon = test system: HT29 colon
IGROV1 ovarian = test system: IGROV1 ovarian
K-562 leukemia = test system: K-562 leukemia
KM12 colon = test system: KM12 colon
LOX IMVI melanoma = test system: LOX IMVI melanoma
M14 melanoma = test system: M14 melanoma
MALME-3M melanoma = test system: MALME-3M melanoma
MCF7 breast = test system: MCF7 breast
MDA-MB-231 breast = test system: MDA-MB-231 breast
MDA-MB-435 = test system: MDA-MB-435
MDA-N = test system: MDA-N
MOLT-4 leukemia = test system: MOLT-4 leukemia
NCI-H226 lung = test system: NCI-H226 lung
NCI-H23 lung = test system: NCI-H23 lung
NCI-H460 lung = test system: NCI-H460 lung
NCI-H522 lung = test system: NCI-H522 lung
NCI/ADR-RES ovarian = test system: NCI/ADR-RES ovarian
OVCAR-3 ovarian = test system: OVCAR-3 ovarian
OVCAR-5 ovarian = test system: OVCAR-5 ovarian
OVCAR-8 ovarian = test system: OVCAR-8 ovarian
PC-3 prostate = test system: PC-3 prostate
RPMI-8226 leukemia = test system: RPMI-8226 leukemia
RXF 393 renal = test system: RXF 393 renal
SF-268 CNS = test system: SF-268 CNS
SF-295 CNS = test system: SF-295 CNS
SF-539 CNS = test system: SF-539 CNS
SK-MEL-2 melanoma = test system: SK-MEL-2 melanoma
SK-MEL-28 melanoma = test system: SK-MEL-28 melanoma
SK-MEL-5 melanoma = test system: SK-MEL-5 melanoma
SK-OV-3 ovarian = test system: SK-OV-3 ovarian
SN12C renal = test system: SN12C renal
SNB-19 CNS = test system: SNB-19 CNS
SNB-75 CNS = test system: SNB-75 CNS
SR leukemia = test system: SR leukemia
SW-620 colon = test system: SW-620 colon
T-47D breast = test system: T-47D breast
TK-10 renal = test system: TK-10 renal
U251 CNS = test system: U251 CNS
UACC-257 melanoma = test system: UACC-257 melanoma
UACC-62 melanoma = test system: UACC-62 melanoma
UO-31 renal = test system: UO-31 renal

## CC1=NC(C)(C)[N+]([O-])=C1
786-0 renal
  TGI: > 10 µM
A498 renal
  TGI: > 10 µM
A549 NSCLC
  TGI: > 10 µM
ACHN renal
  TGI: > 10 µM
BT-549 breast
  TGI: > 10 µM
CAKI-1 renal
  TGI: > 10 µM
CCRF-CEM leukemia
  TGI: > 10 µM
COLO 205 colon
  TGI: > 10 µM
DU-145 prostate
  TGI: > 10 µM
EKVX NSCLC
  TGI: > 10 µM
HCC-2998 colon
  TGI: > 10 µM
HCT-116 colon
  TGI: > 10 µM
HCT-15 colon
  TGI: > 10 µM
HL-60(TB) leukemia
  TGI: > 10 µM
HOP-62 NSCLC
  TGI: > 10 µM
HOP-92 NSCLC
  TGI: > 10 µM
HS 578T breast
  TGI: > 10 µM
HT29 colon
  TGI: > 10 µM
IGROV1 ovarian
  TGI: > 10 µM
K-562 leukemia
  TGI: > 10 µM
KM12 colon
  TGI: > 10 µM
LOX IMVI melanoma
  TGI: > 10 µM
M14 melanoma
  TGI: > 10 µM
MALME-3M melanoma
  TGI: > 10 µM
MCF7 breast
  TGI: > 10 µM
MDA-MB-231 breast
  TGI: > 10 µM
MDA-MB-435
  TGI: > 10 µM
MDA-N
  TGI: > 10 µM
MOLT-4 leukemia
  TGI: > 10 µM
NCI-H226 lung
  TGI: > 10 µM
NCI-H23 lung
  TGI: > 10 µM
NCI-H460 lung
  TGI: > 10 µM
NCI-H522 lung
  TGI: > 10 µM
NCI/ADR-RES ovarian
  TGI: > 10 µM
OVCAR-3 ovarian
  TGI: > 10 µM
OVCAR-5 ovarian
  TGI: > 10 µM
OVCAR-8 ovarian
  TGI: > 10 µM
PC-3 prostate
  TGI: > 10 µM
RPMI-8226 leukemia
  TGI: > 10 µM
RXF 393 renal
  TGI: > 10 µM
SF-268 CNS
  TGI: > 10 µM
SF-295 CNS
  TGI: > 10 µM
SF-539 CNS
  TGI: > 10 µM
SK-MEL-2 melanoma
  TGI: > 10 µM
SK-MEL-28 melanoma
  TGI: > 10 µM
SK-MEL-5 melanoma
  TGI: > 10 µM
SK-OV-3 ovarian
  TGI: > 10 µM
SN12C renal
  TGI: > 10 µM
SNB-19 CNS
  TGI: > 10 µM
SNB-75 CNS
  TGI: 4.85 µM
SR leukemia
  TGI: > 10 µM
SW-620 colon
  TGI: > 10 µM
T-47D breast
  TGI: > 10 µM
TK-10 renal
  TGI: > 10 µM
U251 CNS
  TGI: > 10 µM
UACC-257 melanoma
  TGI: > 10 µM
UACC-62 melanoma
  TGI: > 10 µM
UO-31 renal
  TGI: > 10 µM
